Where two headings read alike, the source gives them in different places.
Tests used:
[1] = tested on: cellular pERK in MIA-PaCa-2 (KRAS-G12C) cell-line; assay: Cell based pERK assay (HTRF), MIA-PaCa-2; conditions: MIA-PaCa-2 (KRAS-G12C) cells, 2 hours incubation, read-out: MIAPaCa2 pERK EC50
Protocol: (§1) Compounds were tested in a 384-well assay format for their ability to inhibit cellular pERK in Kuramochi (WT KRAS), MIA-PaCa-2 (KRAS-G12C), ASPC-1 (KRAS G12D), and NCI-H441 (KRAS-G12V) cell-lines. Compounds were serially diluted (1:3) in DMSO. On day −1, 80 uL of cells were plated per well in the 384 well tissue-culture plates (Greiner: Cat #781080) to seed 5000 cells per wells of AsPC-1 or 7500 cells of MIA-PaCa-2, NCI-H441, and Kuramochi cell lines in RPMI (Corning: Cat #10-040-CM) with 10% fetal bovine serum (FBS) (HyClone: Cat #SH30071-03) and 1× penicillin-streptomycin-glutamate (PSG) (Corning: Cat #30-009-CI) for […] and Kuramochi cell lines and DMEM (Corning: Cat #15-018-CM) with […] and 1× PSG for MKA-PaCa-2 cell line. The plates were then incubated overnight at 37° C. and 5% CO2. On day 0, 400 nL of compound/well was added into the cell plates and mixed 5 times by pipetting using a Beckmann Biomek FX. The cell plates were then incubated for 2 hours at 37° C. and 5% CO2. HTRF Advanced Phospho-ERK1/2 ([…]) Detection Kits (PerkinElmer: Cat #64AERPEG) were used to prepare the lysis and detection solution according to manufacturer protocol. Following the 2 hour incubation, 70 μL of medium was aspirated from the plates and 10 uL of lysis and detection solution was added to the plates using a Biotek EL406 washer and dispenser. Plates were sealed and stored overnight at room temperature. HTRF ratio (665 nm/615 nm) was read by Envision multimode reader (PerkinElmer) the next day. The TR-FRET ratios were normalized to a positive (saturating concentration of known inhibitor) and negative (DMSO) control and plotted against the log of compound concentration. IC50 values were defined as the compound concentration that causes a […] in normalized signal and were calculated using a sigmoidal dose-response model to generate curve fits.

[2] = tested on: cellular pERK in Kuramochi (WT KRAS) cell-line; assay: Cell based pERK assay (HTRF), Kuramochi; conditions: Kuramochi (WT KRAS) cells, 2 hours incubation
Protocol: as §1

[3] = tested on: cellular pERK in ASPC-1 (KRAS G12D) cell-line; assay: Cell based pERK assay (HTRF), ASPC-1; conditions: ASPC-1 (KRAS G12D) cells, 2 hours incubation
Protocol: as §1

[4] = tested on: cellular pERK in NCI-H441 (KRAS-G12V) cell-line; assay: Cell based pERK assay (HTRF), NCI-H441; conditions: NCI-H441 (KRAS-G12V) cells, 2 hours incubation
Protocol: as §1

| SMILES | EC50 [1] [nM] | EC50 [2] [nM] | EC50 ([3]; read-out: AsPC1 pERK EC50) [nM] | EC50 [4] [nM] | EC50 ([1]; Homo sapiens) [nM] | EC50 ([3]; Homo sapiens, ASPC1) [nM] | EC50 ([4]; Homo sapiens) [nM] |
| --- | --- | --- | --- | --- | --- | --- | --- |
| C#Cc1c(F)ccc2cc(O)cc(-c3c(F)c4c5c(nc(OC[C@@]67CCCN6C[C@H](F)C7)nc5c3F)N3CCCOC[C@@H]3CC4)c12 (atropisomer, axis not shown) [Example 24-1, 4-((11S,14a5)-10,12-difluoro-8-(((2R,7a5)-2-fluorotetrahydro-1H-pyrrolizin-7a(5H1)-yl)methoxy)-1,4,5,13,14,14a-hexahydro-3H-[1,4]oxazepino[4′,3′:1,7]azepino[2,3,4-de]quinazolin-11-yl)-5-ethynyl-6-fluoronaphthalen-2-ol] | 46.7 | 138 | 85 | 55.3 | – | – | – |
| C#Cc1c(F)ccc2cc(O)cc(-c3c(F)c4c5c(nc(OC[C@@]67CCCN6C[C@H](F)C7)nc5c3F)N3CCCOC[C@@H]3CC4)c12 (atropisomer, axis not shown) [Example 24-2, 4-((11R,14aS)-10,12-difluoro-8-(((2R,7aS)-2-fluorotetrahydro-1H-pyrrolizin-7a(5H)-yl)methoxy)-1,4,5,13,14,14a-hexahydro-3H-[1,4]oxazepino[4′,3′:1,7]azepino[2,3,4-de]quinazolin-11-yl)-5-ethynyl-6-fluoronaphthalen-2-ol] | 0.82 | 2.64 | 1.69 | 8.01 | – | – | – |
| C#Cc1c(F)ccc2cc(N)cc(-c3c(F)c4c5c(nc(OC[C@@]67CCCN6C[C@H](F)C7)nc5c3F)N3CCCOC[C@@H]3CC4)c12 (atropisomer, axis not shown) [Example 25-1, 4-((11S,14aS)-10,12-difluoro-8-(((2R,7aS)-2-fluorotetrahydro-1H-pyrrolizin-7a(5H)-yl)methoxy)-1,4,5,13,14,14a-hexahydro-3H-[1,4]oxazepino[4′,3′:1,7]azepino[2,3,4-de]quinazolin-11-yl)-5-ethynyl-6-fluoronaphthalen-2-amine] | – | > 1000 | > 1000 | > 1000 | – | – | – |
| C#Cc1c(F)ccc2cc(O)cc(-c3nc4c5c(nc(OC[C@@]67CCCN6C[C@H](F)C7)nc5c3F)N3CC(F)(F)COCC3CC4)c12 (mixture of isomers) [Example 6-17] | – | – | – | – | 0.7 | 10.6 | 3.71 |
| C#Cc1c(F)ccc2cc(O)cc(-c3nc4c5c(nc(OC[C@@]67CCCN6C[C@H](F)C7)nc5c3F)N3CCCCCC3CC4)c12 (mixture of isomers) [Example 6-20] | – | 9.39 | – | – | 11 | 120 | 86.2 |
| C#Cc1c(F)ccc2cc(O)cc(-c3nc4c5c(nc(OC[C@@]67CCCN6C[C@H](F)C7)nc5c3F)N3CCOCC[C@H]3CC4)c12 (single isomer, unassigned) [Example 9-1] | – | 46.9 | – | – | 15.8 | 315 | 101 |
| C#Cc1c(F)ccc2cc(O)cc(-c3nc4c5c(nc(OC[C@@]67CCCN6C[C@H](F)C7)nc5c3F)N3CCOCC[C@H]3CCC4)c12 (single isomer, unassigned) [Example 10-1] | – | 8.55 | – | – | 18.4 | 208 | 68.8 |
| C#Cc1c(F)ccc2cc(O)cc(-c3nc4c5c(nc(OC[C@@]67CCCN6C[C@H](F)C7)nc5c3F)N3CCOCC[C@@H]3CCC4)c12 (single isomer, unassigned) [Example 10-2] | – | 340 | – | – | 248 | > 1000 | > 1000 |
| C#Cc1c(F)ccc2cc(O)cc(-c3nc4c5c(nc(OC[C@@]67CCCN6C[C@H](F)C7)nc5c3F)N3CC(F)(F)COC[C@H]3CC4)c12 (single isomer, unassigned) [Example 17-1] | – | 2.95 | – | – | 0.89 | 54.9 | 7.68 |
| C#Cc1c(F)ccc2cc(O)cc(-c3nc4c5c(nc(OC[C@@]67CCCN6C[C@H](F)C7)nc5c3F)N3CC(F)(F)COC[C@@H]3CC4)c12 (single isomer, unassigned) [Example 17-2] | – | 2.29 | – | – | 1.3 | 10.8 | 5.1 |
| C#Cc1c(F)ccc2cc(N)cc(-c3c(F)c4c5c(nc(OC[C@@]67CCCN6C[C@H](F)C7)nc5c3F)N3CCCOC[C@@H]3CC4)c12 (single isomer, unassigned) [Example 25-2] | – | – | 67.2 | 92 | – | – | – |
| C#Cc1c(F)ccc2cc(O)cc(-c3nc4c5c(nc(OC[C@@]67CCCN6C[C@H](F)C7)nc5c3F)N3CCCC[C@H]3CC4)c12 [Example 1-1, 5-ethynyl-6-fluoro-4-((S)-1-fluoro-11-(((2R,7aS)-2-fluorotetrahydro-1H-pyrrolizin-7a(5H)-yl)methoxy)-5,5a,6,7,8,9-hexahydro-4H-3,9a,10,12-tetraazabenzo[4,5]cyclohepta[1,2,3-de]naphthalen-2-yl)naphthalen-2-ol] | 12.6 | 3.89 | 25.1 | 14.7 | – | – | – |
| CCc1c(F)ccc2cc(O)cc(-c3nc4c5c(nc(OC[C@@]67CCCN6C[C@H](F)C7)nc5c3F)N3CCCC[C@H]3CC4)c12 [Example 2-1, 5-ethyl-6-fluoro-4-((S)-1-fluoro-11-(((2R,7aS)-2-fluorotetrahydro-1H-pyrrolizin-7a(5H)-yl)methoxy)-5,5a,6,7,8,9-hexahydro-4H-3,9a,10,12-tetraazabenzo[4,5]cyclohepta[1,2,3-de]naphthalen-2-yl)naphthalen-2-ol] | 54.9 | 24.7 | 114 | 74.6 | – | – | – |
| C#Cc1c(F)ccc2cc(N)cc(-c3cc4c5c(nc(OC[C@@]67CCCN6C[C@H](F)C7)nc5c3F)N3CCCOCC3CC4)c12 (stereo partly drawn) [Example 3-2] | – | 46.5 | – | – | 87.7 | 288 | 104 |
| C#Cc1c(F)ccc2cc(O)cc(-c3nc4c5c(nc(OC[C@@]67CCCN6C[C@H](F)C7)nc5c3F)N3CCCOC[C@@H]3CC4)c12 [Example 6-1, 5-ethynyl-6-fluoro-4-((S)-1-fluoro-12-(((2R,7aS)-2-fluorotetrahydro-1H-pyrrolizin-7a(5H)-yl)methoxy)-4,5,5a,6,9,10-hexahydro-8H-7-oxa-3,10a,11,13-tetraazanaphtho[1,8-ab]heptalen-2-yl)naphthalen-2-ol] | – | 1.35 | – | – | 0.11 | 1.27 | 0.42 |
| C#Cc1c(F)ccc2cc(O)cc(-c3nc4c5c(nc(OC[C@@]67CCCN6C[C@H](F)C7)nc5c3F)N3CCCOCC3CC4)c12 (stereo partly drawn) [Example 6-2] | – | 4.46 | – | – | 1.01 | 3.74 | 2.09 |
| C#Cc1c(F)ccc2cc(N)cc(-c3nc4c5c(nc(OC[C@@]67CCCN6C[C@H](F)C7)nc5c3F)N3CCCOC[C@@H]3C=C4C)c12 [Example 7-7] | – | – | – | – | 1.97 | 8.61 | 4.01 |
| Cc1c(F)c(N)cc(-c2nc3c4c(nc(OC[C@@]56CCCN5C[C@H](F)C6)nc4c2F)N2CCCOC[C@@H]2CC3)c1C(F)(F)F [Example 7-11] | – | 188 | – | – | – | > 1000 | 724 |
| CCc1c(F)c(F)cc2cc(N)cc(-c3nc4c5c(nc(OCC67CCCN6CCC7)nc5c3F)N3CCCOC[C@@H]3CC4)c12 [Example 8-4] | – | 128 | – | – | – | > 1000 | > 1000 |
| C#Cc1c(F)ccc2cc(N)cc(-c3nc4c5c(nc(OC[C@@]67CCCN6[C@H](COC(=O)N(C)C)CC7)nc5c3F)N3CCCOC[C@@H]3CC4)c12 [Example 23-4] | – | 4.1 | – | – | – | 78 | 57 |
